Experimental findings from US9416144B2, “Benzoxazine oxazolidinone compound, preparation method and application thereof” (priority 2012, dated 2016) are described below.

≈ marks a conversion by molar mass, not a printed value.

Holding throughout (assay): In vitro antibacterial activity, MIC by agar double dilution method
Holding throughout (assay type): cell-based

The subject of assay [1] is Staphylococcus epidermidis resistant strains (5 strains). The conditions noted are these: clinical isolates. The text has this: (§1) Experimental method: The agar double dilution method (Antimicrob. Agents and Chemother, 40, 1996, 720-726) was used to determine the minimum inhibitory concentration (MIC) of the series of compounds of the invention and the positive control drug linezolid for the test strains. The multipoint inoculation system (Denley A400) was employed to inoculate the bacteria on the agar plate surface with different concentrations of drugs; inoculation amount on each point was about 10^6 CFU/mL. The plates were incubated at 35° C. for 16 hrs before the results were observed. The lowest drug concentration contained in the Petri dish without bacterial growth was used as the minimum inhibitory concentration (MIC value) of the drug fir that strain.
(§2) Test strains: All the test strains were clinically isolated pathogens which were collected from the Nanjing region, and they were re-identified by routine methods before use. 31 strains of the clinically isolated pathogens were chosen, including 6 strains of Enterococcus, 5 Staphylococcus aureus sensitive strains; 5 Staphylococcus epidermidis sensitive strains; 6 Staphylococcus aureus resistant strains; 5 Staphylococcus epidermidis resistant strains; and 4 Streptococcus pneumoniae resistant strains.
(§3) Compounds to be tested were first added 2 ml of DMSO to help them fully dissolved, then added sterile double distilled water to the desired concentration; to all the Petri dish with added drug liquid were added 20 mL MIT medium which was heat-melted to be liquid-like, to make the final drug concentration in the Petri dish to be 64, 32, 16, 8, 4, 2, 1, 0.5, 0.25, 0.125, 0.0625, and 0.031 μg/mL.
(§4) The positive control group was LZ (linezolid, brand name Zyvox, approved by the FDA in 2000 to be firstly sold in the United States, which is the first and also the only one of oxazolidinone antibacterial drugs allowed to enter clinical application).

Assay [2] relates to Staphylococcus aureus sensitive strains (5 strains). The conditions noted are these: clinical isolates.
Description: as §1, §2, §3, §4

In assay [3] the test system is Streptococcus pneumoniae resistant strains (4 strains). The note with it: clinical isolates.
Description: as §1, §2, §3, §4

Assay [4] relates to Staphylococcus epidermidis sensitive strains (5 strains). The note with it: clinical isolates.
Description: as §1, §2, §3, §4

For assay [5], the system named is Staphylococcus aureus resistant strains (6 strains). The note with it: clinical isolates.
Description: as §1, §2, §3, §4

The next assay deals with Enterococcus (6 strains). The note with it: clinical isolates, 35° C. 16 hrs.
Description: as §1, §2, §3, §4

Turning to `O=C1O[C@@H](CO)[C@@H]2COc3cc(-c4ccc(C(O)C5CC5)nc4)ccc3N12` (stereo partly drawn) [Compound 6, (3R,3aS)-7-(6-(cyclopropyl(hydroxyl)methyl)pyridin-3-yl)-3-(hydroxyl-methyl)-3a,4-dihydrobenzo[b]oxazolo[3,4-d][1,4]oxazin-1(3H)-one], the MIC in assay [1] is 1 µg/mL (≈ 2.71 µM); in assay [2] it was 1 µg/mL (≈ 2.71 µM); in assay [3], 1 to 2 µg/mL (≈ 2.71 to 5.43 µM); in assay [4], 0.5 to 1 µg/mL (≈ 1.36 to 2.71 µM); in assay [5], 1 to 2 µg/mL (≈ 2.71 to 5.43 µM); against Enterococcus (6 strains), 2 µg/mL (≈ 5.43 µM).
For the compound `CC(C)(O)c1ccc(-c2ccc3c(c2)OC[C@H]2[C@H](CO)OC(=O)N32)cn1` [Compound 7, (3R,3aS)-3-(hydroxylmethyl)-7-(6-(2-hydroxylpropyl-2-yl)pyridin-3-yl)-3a,4-dihydrobenzo[b]oxazolo[3,4-d][1,4]oxazin-1(3H)-one], the minimum inhibitory concentration (MIC) was 2 µg/mL (≈ 5.61 µM) in assay [1]; 1 to 4 µg/mL (≈ 2.81 to 11.2 µM) in assay [2]; 2 to 4 µg/mL (≈ 5.61 to 11.2 µM) in assay [3]; 1 to 4 µg/mL (≈ 2.81 to 11.2 µM) in assay [4]; 1 to 4 µg/mL (≈ 2.81 to 11.2 µM) in assay [5]; 4 µg/mL (≈ 11.2 µM) with Enterococcus (6 strains).
As to `CC(O)c1ccc(-c2ccc3c(c2)OC[C@H]2[C@H](CO)OC(=O)N32)cn1` (stereo partly drawn) [Compound 8, (3R,3aS)-7-(6-(1-hydroxylethyl)pyridin-3-yl)-3-(hydroxylmethyl)-3a,4-dihydrobenzo[b]oxazolo[3,4-d][1,4]oxazin-1(3H)-one], the MIC in assay [1] was 1 to 2 µg/mL (≈ 2.92 to 5.84 µM); in assay [2], 1 to 2 µg/mL (≈ 2.92 to 5.84 µM); in assay [3] it was 2 to 4 µg/mL (≈ 5.84 to 11.7 µM); in assay [4] it was 1 µg/mL (≈ 2.92 µM); in assay [5], 1 to 2 µg/mL (≈ 2.92 to 5.84 µM); in the assay with Enterococcus (6 strains), 2 to 4 µg/mL (≈ 5.84 to 11.7 µM).
For the compound `O=C1O[C@@H](CO)[C@@H]2COc3cc(-c4ccc(CO)nc4)ccc3N12` [Compound 9, (3R,3aS)-3-(hydroxylmethyl)-7-(6-(hydroxylmethyl)pyridin-3-yl)-3a,4-dihydrobenzo[b]oxazolo[3,4-d][1,4]oxazin-1(3H)-one], the minimum inhibitory concentration (MIC) in assay [1] is 0.5 to 1 µg/mL (≈ 1.52 to 3.05 µM); in assay [2], 1 to 2 µg/mL (≈ 3.05 to 6.09 µM); in assay [3], 2 to 4 µg/mL (≈ 6.09 to 12.2 µM); in assay [4], 0.5 µg/mL (≈ 1.52 µM); in assay [5] it was 1 to 2 µg/mL (≈ 3.05 to 6.09 µM); in the assay on Enterococcus (6 strains) it was 4 µg/mL (≈ 12.2 µM).
As for `O=C1O[C@@H](CO)[C@@H]2COc3cc(-c4ccc(C5(O)CCCC5)nc4)ccc3N12` [Compound 10, (3R,3aS)-7-(6-(1-hydroxylcyclopentyl)pyridin-3-yl)-3-(hydroxylmethyl)-3a,4-dihydrobenzo[b]oxazolo[3,4-d][1,4]oxazin-1(3H)-one], the MIC in assay [1] was 1 to 2 µg/mL (≈ 2.61 to 5.23 µM); in assay [2] it was 2 µg/mL (≈ 5.23 µM); in assay [3], 2 µg/mL (≈ 5.23 µM); in assay [4], 1 to 2 µg/mL (≈ 2.61 to 5.23 µM); in assay [5] it was 1 to 2 µg/mL (≈ 2.61 to 5.23 µM); with Enterococcus (6 strains), 2 to 4 µg/mL (≈ 5.23 to 10.5 µM).
Take `CN1CCN(c2ccc(-c3ccc4c(c3)OC[C@H]3[C@H](CO)OC(=O)N43)cn2)CC1` [Compound 12, (3R,3aS)-3-(hydroxylmethyl)7-(6-(4-methylpiperazin-1-yl)pyridin-3-yl)-3a,4-dihydrobenzo[b]oxazolo[3,4-d][1,4]oxazin-1(3H)-one]: the MIC was 4 µg/mL (≈ 10.1 µM) in assay [1]; 2 to 4 µg/mL (≈ 5.04 to 10.1 µM) in assay [2]; 4 µg/mL (≈ 10.1 µM) in assay [3]; 2 to 4 µg/mL (≈ 5.04 to 10.1 µM) in assay [4]; 4 to 8 µg/mL (≈ 10.1 to 20.2 µM) in assay [5]; 2 to 4 µg/mL (≈ 5.04 to 10.1 µM) against Enterococcus (6 strains).
As to `CC(C)N1CC(c2ccc(-c3ccc4c(c3)OC[C@H]3[C@H](CO)OC(=O)N43)cn2)OC1=O` (stereo partly drawn) [Compound 15, (3R,3aS)-3-(hydroxylmethyl)-7-(6-(3-isopropyl-2-oxazolidin-5-yl)pyridin-3-yl)-3a,4-dihydrobenzo[b]oxazolo[3,4-d][1,4]oxazin-1(3H)-one], the MIC in assay [1] is 2 to 4 µg/mL (≈ 4.7 to 9.4 µM); in assay [2], 1 to 2 µg/mL (≈ 2.35 to 4.7 µM); in assay [3], 2 µg/mL (≈ 4.7 µM); in assay [4] it was 1 to 2 µg/mL (≈ 2.35 to 4.7 µM); in assay [5] it was 1 to 2 µg/mL (≈ 2.35 to 4.7 µM); in the assay with Enterococcus (6 strains), 1 to 2 µg/mL (≈ 2.35 to 4.7 µM).
For `O=C1OC(c2ccc(-c3ccc4c(c3)OC[C@H]3[C@H](CO)OC(=O)N43)cn2)CN1Cc1ccccc1` (stereo partly drawn) [Compound 16, (3R,3aS)-7-(6-(3-benzyl-2-oxazolidin-5-yl)pyridin-3-yl)-3-(hydroxylmethyl)-3a,4-dihydrobenzo[b]oxazolo[3,4-d][1,4]oxazin-1(3H)-one], the MIC in assay [1] was 2 to 4 µg/mL (≈ 4.22 to 8.45 µM); in assay [2], 1 to 2 µg/mL (≈ 2.11 to 4.22 µM); in assay [3], 2 µg/mL (≈ 4.22 µM); in assay [4], 1 to 2 µg/mL (≈ 2.11 to 4.22 µM); in assay [5], 1 to 2 µg/mL (≈ 2.11 to 4.22 µM); in the assay on Enterococcus (6 strains), 1 to 2 µg/mL (≈ 2.11 to 4.22 µM).
In the case of `Cn1nnc(-c2ccc(-c3ccc4c(c3)OC[C@H]3[C@H](CO)OC(=O)N43)cn2)n1` [Compound 17, (3R,3aS)-3-(hydroxylmethyl)-7-(6-(2-methyl-2H-tetrazol-5-yl)pyridin-3-yl)-3a,4-dihydrobenzo[b]oxazolo[3,4-d][1,4]oxazin-1(3H)-one], the MIC in assay [1] is 1 to 2 µg/mL (≈ 2.63 to 5.26 µM); in assay [2] it was 1 to 4 µg/mL (≈ 2.63 to 10.5 µM); in assay [3] it was 1 to 2 µg/mL (≈ 2.63 to 5.26 µM); in assay [4], 1 to 2 µg/mL (≈ 2.63 to 5.26 µM); in assay [5], 1 to 2 µg/mL (≈ 2.63 to 5.26 µM); in the assay on Enterococcus (6 strains), 4 µg/mL (≈ 10.5 µM).
As to `O=C1COCCN1c1ccc(-c2ccc3c(c2)OC[C@H]2[C@H](CO)OC(=O)N32)cn1` [Compound 19, (3R,3aS)-3-(hydroxylmethyl)-7-(6-(3-oxomorpholin)pyridin-3-yl)-3a,4-dihydrobenzo[b]oxazolo[3,4-d][1,4]oxazin-1(3H)-one], the MIC in assay [1] fell in the range of 2 to 4 µg/mL (≈ 5.03 to 10.1 µM); in assay [2] it was 2 to 4 µg/mL (≈ 5.03 to 10.1 µM); in assay [3], 2 to 4 µg/mL (≈ 5.03 to 10.1 µM); in assay [4], 1 to 2 µg/mL (≈ 2.52 to 5.03 µM); in assay [5] it was 2 to 4 µg/mL (≈ 5.03 to 10.1 µM); against Enterococcus (6 strains), 2 to 4 µg/mL (≈ 5.03 to 10.1 µM).
With `CN1CCN(c2ccc(-c3ccc4c(c3)OC[C@H]3[C@H](CO)OC(=O)N43)cn2)C(=O)C1` [Compound 20, (3R,3aS)-3-(hydroxylmethyl)-7-(6-(4-methyl-2-oxopiperazin-1-yl)pyridin-3-yl)-3a,4-dihydrobenzo[b]oxazolo[3,4-d][1,4]oxazin-1(3H)-one], the minimal inhibitory concentration (MIC) is 2 to 4 µg/mL (≈ 4.87 to 9.75 µM) in assay [1]; 2 to 4 µg/mL (≈ 4.87 to 9.75 µM) in assay [2]; 4 to 8 µg/mL (≈ 9.75 to 19.5 µM) in assay [3]; 2 to 4 µg/mL (≈ 4.87 to 9.75 µM) in assay [4]; 2 to 4 µg/mL (≈ 4.87 to 9.75 µM) in assay [5]; 16 to 32 µg/mL (≈ 39 to 78 µM) in the assay with Enterococcus (6 strains).
For `O=C1OC(CO)CN1c1ccc(-c2ccc3c(c2)OC[C@H]2[C@H](CO)OC(=O)N32)cn1` (stereo partly drawn) [Compound 24, (3R,3aS)-3-(hydroxylmethyl)-7-(6-(5-(hydroxylmethyl)-2-oxooxazolidin-3-yl)pyridin-3-yl)-3a,4-dihydrobenzo[b]oxazolo[3,4-d][1,4]oxazin-1(3H)-one], the minimum inhibitory concentration (MIC) was 0.5 to 1 µg/mL (≈ 1.21 to 2.42 µM) in assay [1]; 0.5 to 1 µg/mL (≈ 1.21 to 2.42 µM) in assay [2]; 1 µg/mL (≈ 2.42 µM) in assay [3]; 0.25 to 0.5 µg/mL (≈ 0.605 to 1.21 µM) in assay [4]; 0.5 to 1 µg/mL (≈ 1.21 to 2.42 µM) in assay [5]; 0.5 to 1 µg/mL (≈ 1.21 to 2.42 µM) in the assay with Enterococcus (6 strains).
`O=C1O[C@H](CO)CN1c1ccc(-c2ccc3c(c2)OC[C@H]2[C@H](CO)OC(=O)N32)cn1` [Compound 25, (3R,3S)-3-(hydroxylmethyl)-7-(6-((S)-5-(hydroxylmethyl)-2-oxooxazolidin-3-yl)pyridin-3-yl)-3a,4-dihydrobenzo[b]oxazolo[3,4-d][1,4]oxazin-1(3H)-one]: the MIC is 0.5 to 1 µg/mL (≈ 1.21 to 2.42 µM) in assay [1]; 0.5 to 1 µg/mL (≈ 1.21 to 2.42 µM) in assay [2]; 1 µg/mL (≈ 2.42 µM) in assay [3]; 0.5 to 1 µg/mL (≈ 1.21 to 2.42 µM) in assay [4]; 0.5 to 1 µg/mL (≈ 1.21 to 2.42 µM) in assay [5]; 0.5 to 1 µg/mL (≈ 1.21 to 2.42 µM) in the assay on Enterococcus (6 strains).
